# Experimental data: patent publication US20150045387A1, “Bi-Aromatic And Tri-Aromatic Compounds As NADPH Oxidase 2 (Nox2) Inhibitors” (The University of Surrey, priority 2011, published 2015)
# Experiments:
# [1] = test system: SVEC4-10 cells; experiment: normal cell proliferation, MTS assay, SVEC4-10; type: cell-based, mouse; conditions: SVEC4-10, LMH001 up to 10 μM, 24 h
# Description: A) SVEC4-10 cells and HepG2 cells were cultured in the presence or absence of LHM001 (0-10 μM) for 24 h and tested for cell proliferation using a MTS assay kit. B) HL-60 cells were cultured in the presence or absence of LMH001 (0-10 μM), and cell proliferation was examined at 6, 12 and 24 h of culture.
# The mouse lymph node microvascular endothelial cell line (SVEC4-10) was from the American Type Culture Collection (CRL-2167) and grown in DMEM, containing 10% (v/v) heat inactivated foetal calf serum, 100 U/mL penicillin and […] streptomycin, in a humidified atmosphere at 37° C. with 5% CO2.
# The ex vivo proliferative capabilities of isolated BMSC or cultured cells were analyzed using the MTS proliferation assay. BMSC were suspended in Dulbecco's modified Eagle's medium supplemented with 5% fetal bovine serum (Sigma), 100 U/mL penicillin and 100 μg/mL streptomycin, and plated in 1% gelatin coated 96-well plates at a density of 1×10^5 cells/well in triplicate. After 24 hours in culture medium containing LMH001 (0-10 μM), proliferation was assessed using the MTS (CellTiter 96 AQ; Promega, Madison, USA) assay according to the manufacturer's protocol. The absorbance at 490 nm was read using an ELISA plate reader (Perkin elmer), and the proliferation index calculated relative to the controls. The mean of 3 blank readings was subtracted from each corrected value.
# [2] = test system: human liver hepatocyte cells (HepG2); experiment: cell viability by trypan blue exclusion and viable cell number counting, HepG2; type: cell-based; conditions: HepG2, LMH001 5 and 10 μM, 24 h, trypan blue exclusion
# Description: FIG. 7 is a graph showing no cytotoxicity of LMH001 on living mouse microvascular endothelial cells (SVEC4-10) and human liver hepatocyte cells (HepG2), assessed by trypan blue exclusion and viable cell number counting. Cells were cultured with LMH001 (5 and 10 μM) for 24 h. Cell viabilities of SVEC4-10 cells and HepG2 cells in the presence of LMH001 (5 and 10 μM) were expressed as % of alive cells compared to cells in the absence of LMH001 (control, 100%). Results are presented as mean±SD (n=3).
# HepG2 is a human hepatocytic cell line (ATCC No. HB-8065) that was originally derived from liver tissue with a well differentiated hepatocellular carcinoma. HepG2 cells have been proven to be a suitable in vitro model system for the study of human hepatocytes, and the study of liver metabolism and toxicity. […]
# Cell viability and membrane integrity in the presence and absence of LMH001 were assessed using the trypan blue exclusion assay as described previously (15). […] At the time of experiment, cells were harvested by 0.25% Trypsin/EDTA, pelleted, resuspended in serum free medium and counted using a haemocytometer in the presence of trypan blue (0.4%) solution. The number of viable cells was calculated as a percentage of total cells.
smiles,measurement,setting,value
"O=C(OCc1cccc(O)c1O)c1ccc(O)c(CO)c1 [LMH001, (2,3,-dihydroxyphenyl)methyl 4-hydroxy-3-(hydroxymethyl)benzoate]",normal cell proliferation under physiological condition,[1],no significant effect
same,cell viability (% of alive cells vs control),[2],no significant difference
